Source: PMC9505538, “P-Glycoprotein (MDR1/ABCB1) Restricts Brain Accumulation of the Novel EGFR Inhibitor EAI045 and Oral Elacridar Coadministration Enhances Its Brain Accumulation and Oral Exposure” (Pharmaceuticals, 2022)

How the values were obtained:
[1] = target: T1, endogenous canine ABCB1 (Canis lupus familiaris, UniProt C0KKU9); assay: Transepithelial transport of EAI045 across MDCK-II parental cell layers; type: in vitro ADME; settings: for efflux ratio r (relative transport ratio): EAI045 5 μM
T1 construct: the endogenous canine ABCB1, expressed at low levels in the parental cell line; endogenous in cells; host or cells: MDCK-II parental cells (ECACC 00062107)
T1 sequence (C0KKU9 1-1281): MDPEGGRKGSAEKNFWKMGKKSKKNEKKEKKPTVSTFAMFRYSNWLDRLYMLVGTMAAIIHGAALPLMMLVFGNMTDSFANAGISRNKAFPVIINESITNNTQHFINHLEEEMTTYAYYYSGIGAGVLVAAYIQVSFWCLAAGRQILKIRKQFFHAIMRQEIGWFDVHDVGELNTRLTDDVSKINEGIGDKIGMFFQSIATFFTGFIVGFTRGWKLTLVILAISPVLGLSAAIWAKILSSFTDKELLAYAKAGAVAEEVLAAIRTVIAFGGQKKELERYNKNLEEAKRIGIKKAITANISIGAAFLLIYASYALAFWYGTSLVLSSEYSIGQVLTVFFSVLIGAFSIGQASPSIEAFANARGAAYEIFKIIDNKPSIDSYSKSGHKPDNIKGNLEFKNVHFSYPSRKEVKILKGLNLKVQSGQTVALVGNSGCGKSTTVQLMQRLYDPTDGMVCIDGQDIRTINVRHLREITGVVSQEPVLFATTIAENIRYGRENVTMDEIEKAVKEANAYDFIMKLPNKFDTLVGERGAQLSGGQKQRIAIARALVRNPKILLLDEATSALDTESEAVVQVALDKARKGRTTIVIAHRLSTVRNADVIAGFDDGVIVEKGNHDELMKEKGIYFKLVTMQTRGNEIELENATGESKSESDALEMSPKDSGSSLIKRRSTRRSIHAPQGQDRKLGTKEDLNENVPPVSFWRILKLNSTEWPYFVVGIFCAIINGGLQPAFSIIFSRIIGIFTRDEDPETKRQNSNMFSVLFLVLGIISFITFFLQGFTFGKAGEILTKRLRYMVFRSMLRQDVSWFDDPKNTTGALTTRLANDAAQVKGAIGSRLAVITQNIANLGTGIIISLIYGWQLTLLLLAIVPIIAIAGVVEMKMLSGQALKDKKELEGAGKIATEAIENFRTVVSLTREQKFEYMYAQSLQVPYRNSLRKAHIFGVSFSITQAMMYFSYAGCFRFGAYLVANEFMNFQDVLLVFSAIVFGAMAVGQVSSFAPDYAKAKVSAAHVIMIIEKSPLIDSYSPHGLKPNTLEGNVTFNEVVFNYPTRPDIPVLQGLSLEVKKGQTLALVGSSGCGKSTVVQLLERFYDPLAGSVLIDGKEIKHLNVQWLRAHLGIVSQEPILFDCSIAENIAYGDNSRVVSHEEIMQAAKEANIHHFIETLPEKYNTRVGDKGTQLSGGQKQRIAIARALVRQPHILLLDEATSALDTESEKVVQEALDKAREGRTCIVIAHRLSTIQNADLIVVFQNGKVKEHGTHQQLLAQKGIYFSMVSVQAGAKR
Experimental: (§1) Transport of EAI045 (5 μM) across epithelia was tested using cell layers of Madin–Darby Canine Kidney (MDCK-II) cells and derived clones expressing hABCB1, hABCG2, or mAbcg2 cDNA. […] In cells overexpressing hABCB1, there was clear transport of EAI045 in the apical direction (r = 5.5, Figure 1C). […] To evaluate the interaction between hABCG2 and mAbcg2 and EAI045, zosuquidar (5 μM) was added to inhibit any endogenous canine ABCB1. In cells overexpressing hABCG2, the BA transport of EAI045 was somewhat increased relative to the AB transport, resulting in an efflux ratio of 1.4 (Figure 1E).
(§2) Figure 1 In vitro transepithelial transport of EAI045 (5 μM) using MCDK-II parental cells (A,B) or transduced with human ABCB1 (C,D), human ABCG2 (E,F), or murine Abcg2 (G,H) cDNA. At t = 0 EAI045 was added in the donor compartment (either apical or basolateral). At 1, 2, and 4 h EAI045 was quantified in the acceptor compartment and the cumulative total transported amount per well was plotted (n = 3). Zosuquidar (5 μM) was added to inhibit the human and/or the endogenous ABCB1, while Ko143 (5 μM) was added to inhibit the human or murine ABCG2. r, relative transport ratio. […] Points, mean; bars, SD. TEXT PRINTED IN THE PICTURE: (A) no label printed: Parental: r = 1.7 | (B) no label printed: Parental + Zos.: r = 1.1 | (C) no label printed: hABCB1: r = 5.5 | (D) no label printed: hABCB1 + Zos.: r = 1.3 | (E) no label printed: hABCG2 + Zos.: r = 1.4 | (F) no label printed: hABCG2 + Zos. + Ko143: r = 1.1 | (G) no label printed: mAbcg2 + Zos.: r = 1.8 | (H) no label printed: mAbcg2 + Zos. + Ko143: r = 1.4
(§3) Madin–Darby Canine Kidney (MDCK-II) cells (ECACC 00062107) stably transduced with human (h) ABCB1, hABCG2, or mouse (m) Abcg2 cDNA were generated in our institute between 1998 and 2005. […] In short, cells were allowed to grow an intact monolayer in 3 days, which was monitored with transepithelial electrical resistance (TEER) measurements, both before and after the transport phase. […] Proper functionality of these cell lines was monitored by continual testing with a variety of drug substrates.

[2] = target: T2, murine Abcg2 (Mus musculus, UniProt Q7TMS5); assay: Transepithelial transport of EAI045, MDCK-II cells transduced with murine Abcg2; type: in vitro ADME; settings: for efflux ratio r (relative transport ratio): EAI045 5 μM
T2 construct: expressed in transfected cells; host or cells: MDCK-II cells, stably transduced, generated in the authors' institute
T2 sequence (Q7TMS5 1-657): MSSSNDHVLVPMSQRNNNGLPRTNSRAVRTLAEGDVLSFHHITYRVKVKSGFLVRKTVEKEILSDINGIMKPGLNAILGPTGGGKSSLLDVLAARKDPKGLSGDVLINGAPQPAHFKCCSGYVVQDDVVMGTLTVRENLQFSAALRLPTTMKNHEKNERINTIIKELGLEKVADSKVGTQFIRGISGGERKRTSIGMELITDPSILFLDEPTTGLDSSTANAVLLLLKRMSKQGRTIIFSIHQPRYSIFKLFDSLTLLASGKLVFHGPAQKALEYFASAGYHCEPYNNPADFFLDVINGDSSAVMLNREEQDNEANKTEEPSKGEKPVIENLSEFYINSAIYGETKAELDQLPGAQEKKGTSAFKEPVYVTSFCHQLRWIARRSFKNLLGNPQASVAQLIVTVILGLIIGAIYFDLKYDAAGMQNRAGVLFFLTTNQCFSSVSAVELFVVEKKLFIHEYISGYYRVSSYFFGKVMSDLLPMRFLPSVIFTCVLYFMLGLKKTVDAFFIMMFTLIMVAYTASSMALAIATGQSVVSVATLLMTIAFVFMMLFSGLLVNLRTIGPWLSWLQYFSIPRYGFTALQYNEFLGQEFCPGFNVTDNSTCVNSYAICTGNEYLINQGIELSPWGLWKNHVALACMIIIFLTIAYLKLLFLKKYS
Experimental: as §1, §2, §3

[3] = system: lung cancer driven by EGFR(L858R/T790M); settings: cited from earlier work

efflux ratio r (relative transport ratio) ([1]; parental + zosuquidar 5 μM): 1.1
efflux ratio r (relative transport ratio) ([1]; parental, no inhibitor): 1.7
transport substrate of endogenous canine ABCB1 ([1]; in vitro): moderate transport substrate
efflux ratio r (relative transport ratio) ([2]; mAbcg2 + zosuquidar 5 μM): 1.8
efflux ratio r (relative transport ratio) ([2]; mAbcg2 + zosuquidar 5 μM + Ko143 5 μM): 1.4
transport by mouse Abcg2 ([2]; in vitro): at best slightly transported
Structure (SMILES): O=C(Nc1nccs1)C(c1cc(F)ccc1O)N1Cc2ccccc2C1=O (centres unmarked) [EAI045]
effect in L858R/T790M mutant mice, combination treatment ([3]; EAI045 combined with cetuximab): marked tumor regressions
effect in L858R/T790M mutant mice, agent alone ([3]; single agent): very modest effect
